Test results reported in PubChem BioAssay AID1963958 (Molecular Pharmacology Branch, DTP, NCI, 2024).
“And” between values parts separate entries of the source, which are not always exact repeats. Equal values may be shown once.

Tested on: MDA-MB-231 multicell spheroids, viability
Test: Anticancer human tumor MDA-MB-231 cell line growth inhibition [PI3K];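 also: spheroids exposed to agents for seven days before reading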;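 as to viability, T/C: percent of vehicle control luminescence with DMSO treated spheroids as 100%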
Conditions: for viability, T/C: stronger effect = lower value; active = viability on the fitted dose curve at most 10% of control; inactive = the rest
Outline: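 Viability of mixed-cell spheroids was determined after exposure to pairwise combinations, one partner being inavolisib, alpelisib, duvelisib or copanlisib. Highest tested concentration matched clinical Cmax where known and 10 microM where not, descending in half-log steps.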

[1] = curve of first compound, second compound 0.0316 µM
[2] = curve of first compound, second compound 0.1 µM
[3] = curve of first compound, second compound 0.316 µM
[4] = curve of first compound, second compound 1 µM
[5] = curve of first compound, second compound 3.16 µM
[6] = curve of first compound, second compound 10 µM
[7] = second compound 0.0316 µM, first compound 0.0316 µM
[8] = second compound 0.0316 µM, first compound 0.1 µM
[9] = second compound 0.0316 µM, first compound 0.316 µM
[10] = second compound 0.0316 µM, first compound 1 µM
[11] = second compound 0.0316 µM, first compound 3.16 µM
[12] = second compound 0.0316 µM, first compound 10 µM
[13] = second compound 0.1 µM, first compound 0.0316 µM
[14] = second compound 0.1 µM, first compound 0.1 µM
[15] = second compound 0.1 µM, first compound 0.316 µM
[16] = second compound 0.1 µM, first compound 1 µM
[17] = second compound 0.1 µM, first compound 3.16 µM
[18] = second compound 0.1 µM, first compound 10 µM
[19] = second compound 0.316 µM, first compound 0.0316 µM
[20] = second compound 0.316 µM, first compound 0.1 µM
[21] = second compound 0.316 µM, first compound 0.316 µM
[22] = second compound 0.316 µM, first compound 1 µM
[23] = second compound 0.316 µM, first compound 3.16 µM
[24] = second compound 0.316 µM, first compound 10 µM
[25] = second compound 1 µM, first compound 0.0316 µM
[26] = second compound 1 µM, first compound 0.1 µM
[27] = second compound 1 µM, first compound 0.316 µM
[28] = second compound 1 µM, first compound 1 µM
[29] = second compound 1 µM, first compound 3.16 µM
[30] = second compound 1 µM, first compound 10 µM
[31] = second compound 3.16 µM, first compound 0.0316 µM
[32] = second compound 3.16 µM, first compound 0.1 µM
[33] = second compound 3.16 µM, first compound 0.316 µM
[34] = second compound 3.16 µM, first compound 1 µM
[35] = second compound 3.16 µM, first compound 3.16 µM
[36] = second compound 3.16 µM, first compound 10 µM
[37] = second compound 10 µM, first compound 0.0316 µM
[38] = second compound 10 µM, first compound 0.1 µM
[39] = second compound 10 µM, first compound 0.316 µM
[40] = second compound 10 µM, first compound 1 µM
[41] = second compound 10 µM, first compound 3.16 µM
[42] = second compound 10 µM, first compound 10 µM
[43] = curve of first compound, second compound 0.00316 µM
[44] = curve of first compound, second compound 0.01 µM
[45] = second compound 0.00316 µM, first compound 0.0316 µM
[46] = second compound 0.00316 µM, first compound 0.1 µM
[47] = second compound 0.00316 µM, first compound 0.316 µM
[48] = second compound 0.00316 µM, first compound 1 µM
[49] = second compound 0.00316 µM, first compound 3.16 µM
[50] = second compound 0.00316 µM, first compound 10 µM
[51] = second compound 0.01 µM, first compound 0.0316 µM
[52] = second compound 0.01 µM, first compound 0.1 µM
[53] = second compound 0.01 µM, first compound 0.316 µM
[54] = second compound 0.01 µM, first compound 1 µM
[55] = second compound 0.01 µM, first compound 3.16 µM
[56] = second compound 0.01 µM, first compound 10 µM

CC1(C)CCC(Nc2ncc(C(F)(F)F)c(-c3c[nH]c4c(P(C)(C)=O)c(C#N)ccc34)n2)CN1 (configuration not stated) + Cc1nc(NC(=O)N2CCCC2C(N)=O)sc1-c1ccnc(C(C)(C)C(F)(F)F)c1
< 31.6 nM: IC50 [3] | IC50 [4] | IC50 [5] | IC50 [6]
inactive: viability, T/C [7] 47.6% | viability, T/C [8] 42.8% | viability, T/C [9] 47.6% | viability, T/C [10] 51.2% | viability, T/C [11] 54.6% | viability, T/C [13] 48.5% | viability, T/C [14] 44.1% | viability, T/C [15] 45.2% | viability, T/C [16] 49.9% | viability, T/C [17] 52.5% | viability, T/C [19] 44.5% | viability, T/C [20] 42.7% | viability, T/C [21] 44.7% | viability, T/C [22] 45.5% | viability, T/C [23] 47.5% | viability, T/C [25] 43.4% | viability, T/C [26] 43.8% | viability, T/C [27] 43.9% | viability, T/C [28] 45.4% | viability, T/C [29] 44.8% | viability, T/C [31] 43.5% | viability, T/C [32] 44% | viability, T/C [33] 42.5% | viability, T/C [34] 42.6% | viability, T/C [35] 40.4% | viability, T/C [37] 41.7% | viability, T/C [38] 43.4% | viability, T/C [39] 40.5% | viability, T/C [40] 40.3% | viability, T/C [41] 38.1%
active: viability, T/C [12] 4.85% | viability, T/C [18] 5.6% | viability, T/C [24] 3.95% | viability, T/C [30] 3.6% | viability, T/C [36] 4.49% | viability, T/C [42] 3.35%
31.6 nM: IC50 [1] | IC50 [2]

CCCS(=O)(=O)Nc1ccc(F)c(C(=O)c2c[nH]c3ncc(-c4ccc(Cl)cc4)cc23)c1F
inactive: viability, T/C (compound 0.0316 µM) 113% [middle of 4 runs] | viability, T/C (compound 0.1 µM) 111% [middle of 4 runs] | viability, T/C (compound 0.316 µM) 104% [middle of 4 runs] | viability, T/C (compound 1 µM) 89.3% [middle of 4 runs] | viability, T/C (compound 3.16 µM) 68.9% [middle of 4 runs] | viability, T/C (compound 10 µM) 34.8% [middle of 4 runs]
5.82 µM [middle of 4 runs]: IC50 (curve of compound)

CCCS(=O)(=O)Nc1ccc(F)c(C(=O)c2c[nH]c3ncc(-c4ccc(Cl)cc4)cc23)c1F + CC(Nc1ncnc2nc[nH]c12)c1cc2cccc(Cl)c2c(=O)n1-c1ccccc1
372 nM: IC50 [6]
4670 nM: IC50 [3]
inactive: viability, T/C [7] 114% | viability, T/C [8] 109% | viability, T/C [9] 102% | viability, T/C [10] 89.8% | viability, T/C [11] 66.8% | viability, T/C [12] 32.7% | viability, T/C [13] 113% | viability, T/C [14] 108% | viability, T/C [15] 96.5% | viability, T/C [16] 82.8% | viability, T/C [17] 61.2% | viability, T/C [18] 34.5% | viability, T/C [19] 85.8% | viability, T/C [20] 95.3% | viability, T/C [21] 99.2% | viability, T/C [22] 79.4% | viability, T/C [23] 60.1% | viability, T/C [24] 32.3% | viability, T/C [25] 95.5% | viability, T/C [26] 82.9% | viability, T/C [27] 77.4% | viability, T/C [28] 71.9% | viability, T/C [29] 54.4% | viability, T/C [30] 30.5% | viability, T/C [31] 68.4% | viability, T/C [32] 70.9% | viability, T/C [33] 67.2% | viability, T/C [34] 56.5% | viability, T/C [35] 44.6% | viability, T/C [36] 26.4% | viability, T/C [37] 52.8% | viability, T/C [38] 55% | viability, T/C [39] 52.1% | viability, T/C [40] 43.3% | viability, T/C [41] 37.7% | viability, T/C [42] 23%
1930 nM: IC50 [5]
5600 nM: IC50 [1]
5140 nM: IC50 [2]
3790 nM: IC50 [4]

CNC(=O)c1ccc(N2C(=S)N(c3ccc(C#N)c(C(F)(F)F)c3)C(=O)C2(C)C)cc1F + COc1c(OCCCN2CCOCC2)ccc2c3n(c(=NC(=O)c4cnc(N)nc4)nc12)CCN3
< 31.6 nM: IC50 [2] | IC50 [3] | IC50 [4]
inactive: viability, T/C [45] 98.3% | viability, T/C [46] 96.5% | viability, T/C [47] 98.9% | viability, T/C [48] 97.6% | viability, T/C [49] 95.9% | viability, T/C [50] 81.3% | viability, T/C [51] 82.2% | viability, T/C [52] 78.5% | viability, T/C [53] 82.5% | viability, T/C [54] 83.7% | viability, T/C [55] 72.7% | viability, T/C [56] 64.2% | viability, T/C [7] 63% | viability, T/C [8] 64.5% | viability, T/C [9] 64.8% | viability, T/C [10] 61.7% | viability, T/C [11] 59% | viability, T/C [12] 50.9% | viability, T/C [13] 50.9% | viability, T/C [14] 46.2% | viability, T/C [15] 48.9% | viability, T/C [16] 48.1% | viability, T/C [17] 46.9% | viability, T/C [18] 38.8% | viability, T/C [19] 34.5% | viability, T/C [20] 34.4% | viability, T/C [21] 34.8% | viability, T/C [22] 34.6% | viability, T/C [23] 32.6% | viability, T/C [24] 28.3% | viability, T/C [25] 25.6% | viability, T/C [26] 24.8% | viability, T/C [27] 25% | viability, T/C [28] 24.8% | viability, T/C [29] 25.1% | viability, T/C [30] 22.9%
> 10000 nM: IC50 [43] | IC50 [44] | IC50 [1]

CC(C)n1nc(-c2ccc3oc(N)nc3c2)c2c(N)ncnc21
inactive: viability, T/C (compound 0.000316 µM) 107% [middle of 4 runs] | viability, T/C (compound 0.001 µM) 99.7% [middle of 4 runs] | viability, T/C (compound 0.00316 µM) 104% and 101% (2×) and 97.3% | viability, T/C (compound 0.01 µM) 84.7% [middle of 4 runs] | viability, T/C (compound 0.0316 µM) 67.4% [middle of 4 runs] | viability, T/C (compound 0.1 µM) 38.8% [middle of 4 runs]
66.7 nM [middle of 4 runs]: IC50 (curve of compound)

C#Cc1c(F)ccc2cc(O)cc(-c3ncc4c(N5CC6CCC(C5)N6)nc(OCC56CCCN5CC(F)C6)nc4c3F)c12 (configuration not stated) + CC(Nc1ccc2c(c1)OCCn1cc(N3C(=O)OCC3C(F)F)nc1-2)C(N)=O
inactive: viability, T/C [45] 103% | viability, T/C [46] 99% | viability, T/C [47] 96.1% | viability, T/C [48] 86.7% | viability, T/C [49] 69.8% | viability, T/C [50] 48.6% | viability, T/C [51] 94% | viability, T/C [52] 94.8% | viability, T/C [53] 87.6% | viability, T/C [54] 78.3% | viability, T/C [55] 63.9% | viability, T/C [56] 47.4% | viability, T/C [7] 74.2% | viability, T/C [8] 83.1% | viability, T/C [9] 74.4% | viability, T/C [10] 61.4% | viability, T/C [11] 56.7% | viability, T/C [12] 41.8% | viability, T/C [13] 70.3% | viability, T/C [14] 65.3% | viability, T/C [15] 64.5% | viability, T/C [16] 56.8% | viability, T/C [17] 53.7% | viability, T/C [18] 35.5% | viability, T/C [19] 67.6% | viability, T/C [20] 67.1% | viability, T/C [21] 58.8% | viability, T/C [22] 54.2% | viability, T/C [23] 44% | viability, T/C [24] 33.4% | viability, T/C [25] 60.7% | viability, T/C [26] 54.4% | viability, T/C [27] 55.4% | viability, T/C [28] 51.4% | viability, T/C [29] 41.5% | viability, T/C [30] 28%
9280 nM: IC50 [43]
8370 nM: IC50 [44]
3360 nM: IC50 [2]
1060 nM: IC50 [4]
1540 nM: IC50 [3]
4680 nM: IC50 [1]
